Test results from PMC7979765, “trans-Translation inhibitors bind to a novel site on the ribosome and clear Neisseria gonorrhoeae in vivo” (Nature Communications, 2021).
Read-outs that look alike come from different tables or passages of the source.

Test: Pharmacokinetic analyses in mice (PO suspension, IV, SC)
Format: in vivo, mouse
Conditions: in vivo
Protocol: Female CD-1 mice as above were fasted for 2 h prior, and 4 h after dosing. […] […], 3 mice from each group were euthanized by CO2 inhalation, blood was collected by cardiac puncture into K2EDTA collection tubes, and protein was precipitated and analysed by LC/MS-MS for plasma concentrations of MBX-4132. Data were analysed using WinNonLin.
[…] At 0.083, 0.5, 1, 4, 8 and 24 h post dose, blood was collected from 3 mice/group by tail vein or facial bleed into K2EDTA collection tubes, and protein was precipitated and analysed by LC/MS-MS for plasma concentrations of MBX-4132. Sampling was performed serially, with each mouse contributing sample at all time points. Data were analysed using WinNonLin.

[1] = female, CD-1, mouse, sc, 10 mg/kg, SC (10 mg/kg), mean of 3 animals, read-out: MBX 4132 Concentrations in Mouse Plasma, Mean
[2] = female, CD-1, mouse, sc, 10 mg/kg, SC (10 mg/kg), individual animals, read-out: MBX 4132 Concentrations in Mouse Plasma
[3] = female, CD-1, mouse, sc, 25 mg/kg, SC (25 mg/kg), individual animals, read-out: MBX 4132 Concentrations in Mouse Plasma
[4] = female, CD-1, mouse, sc, 25 mg/kg, SC (25 mg/kg), mean of 3 animals, read-out: MBX 4132 Concentrations in Mouse Plasma, Mean
[5] = mouse, iv, 10 mg/kg, IV (10 mg/kg), individual animals, read-out: MBX 4132 Concentrations in Mouse Plasma
[6] = mouse, iv, 10 mg/kg, IV (10 mg/kg), mean of 3 animals, read-out: MBX 4132 Concentrations in Mouse Plasma, Mean
[7] = mouse, po, 10 mg/kg, PO (10 mg/kg), mean of 3 animals, read-out: MBX 4132 Concentrations in Mouse Plasma, Mean
[8] = mouse, po, 10 mg/kg, PO (10 mg/kg), individual animals, read-out: MBX 4132 Concentrations in Mouse Plasma

In the case of `O=C(Nc1nnc(-c2ccc(F)cc2)o1)N1CCc2ccccc2C1` [MBX 4132], the concentration at 8 h (female, CD-1, mouse, po, 10 mg/kg, PO (10 mg/kg susp.), mean of 3 animals, read-out: MBX 4132 Concentrations in Mouse Plasma, Mean) is reported as 9920 ng/mL, the concentration at 24 h (female, CD-1, mouse, po, 10 mg/kg, PO (10 mg/kg susp.), individual animals, read-out: MBX 4132 Concentrations in Mouse Plasma) is reported as less than 62.5 ng/mL and the concentration at 0.083 h (female, CD-1, mouse, po, 10 mg/kg, PO (10 mg/kg), mean of 3 animals, read-out: MBX 4132 Concentrations in Mouse Plasma, Mean) is reported as 1260 ng/mL. The concentration at 0.083 h [1] was 786 ng/mL, the concentration at 0.5 h [2] was 3430 ng/mL and the concentration at 0.5 h [1] was 3780 ng/mL. It also gave a concentration at 1 h [2] of 3480 ng/mL, a concentration at 1 h [1] of 3350 ng/mL and a concentration at 4 h [2] of 3280 ng/mL. The concentration at 4 h [1] was 2850 ng/mL, the concentration at 8 h [2] was 2000 ng/mL and the concentration at 8 h [1] was 2430 ng/mL. The concentration at 24 h [2] was 599 ng/mL, the concentration at 24 h [1] was 608 ng/mL and the concentration at 0.083 h [3] was 1170 ng/mL. The concentration at 0.083 h [4] was 1510 ng/mL, the concentration at 0.5 h [4] was 5010 ng/mL and the concentration at 1 h [3] was 3020 ng/mL. It also gave a concentration at 1 h [4] of 4580 ng/mL, a concentration at 4 h [3] of 2380 ng/mL and a concentration at 4 h [4] of 3010 ng/mL. It also gave a concentration at 8 h [3] of 3420 ng/mL, a concentration at 8 h [4] of 4040 ng/mL and a concentration at 24 h [3] of 1540 ng/mL. The concentration at 24 h [4] was 1800 ng/mL, the concentration at 0.083 h [5] was 74600 ng/mL and the concentration at 0.083 h [6] was 66300 ng/mL. For the same compound, the concentration at 0.5 h [5] was 30600 ng/mL, the concentration at 0.5 h [6] was 32900 ng/mL and the concentration at 1 h [5] was 21000 ng/mL. The concentration at 1 h [6] was 21400 ng/mL, the concentration at 4 h [5] was 7790 ng/mL and the concentration at 4 h [6] was 7590 ng/mL. The concentration at 8 h [5] was 3920 ng/mL, the concentration at 8 h [6] was 3730 ng/mL and the concentration at 0.5 h [7] was 1360 ng/mL. The concentration at 1 h [8] was 1090 ng/mL, the concentration at 1 h [7] was 1440 ng/mL and the concentration at 4 h [8] was 1680 ng/mL. The concentration at 4 h [7] was 2170 ng/mL, the concentration at 8 h [8] was 4350 ng/mL and the concentration at 8 h [7] was 5110 ng/mL. The concentration at 24 h [7] was 58 ng/mL.
